Data: patent US20180153872A1, “HETEROARYL CARBONITRILES FOR THE TREATMENT OF DISEASE” (OPKO Health, Inc., priority 2015, published 2018)

Test system: cough induced by mechanical stimulation of the intrathoracic trachea
Experiment: Mechanically induced cough in anesthetized dogs
Format: in vivo
Settings: anesthetized dog, 0.3 mg/kg oral
Procedure: The antitussive activity of SCH 900978 was also evaluated against cough induced by mechanical stimulation of the intrathoracic trachea in anesthetized dogs. Cough was measured in each stimulation trial by the cough frequency (number of coughs) and cough amplitude (cm H2O increase in expiratory pressure). […] Plasma concentration of SCH900978 at 2, 6 and 25 hours after administration of the 0.3 mg/kg dose to dogs were 201, 151 and 102 ng/mL (373, 280 and 189 nM), respectively.

## C[C@@H](OC[C@@]1(c2ccccc2)CC[C@](C#N)(n2cn[nH]c2=O)CN1)c1cc(C(F)(F)F)cc(C(F)(F)F)c1 [Compound 42, (3 S,6S)-6-({(1R)-1-[3,5-bis(trifluoromethyl)phenyl]ethoxy}methyl)-3-(5-oxo-1,5dihydro-4H-1,2,4-triazol-4-yl)-6-phenylpiperidine-3-carbonitrile]
  duration of significantly reduced cough amplitude: up to 24 hours
  duration of significantly reduced cough frequency: up to 24 hours
